Source: patent US20140357582A1, “DESRHAMNOSYL ACTEOSIDE-CONTAINING OLIVE EXTRACT” (SUNTORY HOLDINGS LIMITED, priority 2012, published 2014)

Tests used:
SD (IGS) male rats = experiment: Blood antioxidative activity (FRAP and ORAC methods) in rats after oral administration; format: in vivo, rat; settings: 5 mL/kg; for blood antioxidative activity after administration: 0.8 mM suspension in 0.5% CMC or olive oil, FRAP and ORAC, up to 24 hours
Description: The influence of DRA on blood antioxidative activity was evaluated using rats. The evaluation of blood antioxidative activity was performed using the FRAP and ORAC methods. The DRA and acteoside used in this evaluation were those prepared by the same procedures as in Example 2 and Preparation Example 2, respectively.
(§1) SD (IGS) male rats (6 weeks old) were purchased from Charles River Laboratories Japan, Inc. After the rats were acclimated to the test environment for one week, those rats which grew normally were subjected to testing. The rats were fasted overnight and divided into five groups each consisting of three rats. Rats were orally administered a 0.5% CMC solution (Group 1), a suspension of DRA in 0.5% CMC (0.8 mM) (Group 2), a suspension of purified acteoside in 0.5% CMC (0.8 mM) (Group 3), an olive oil solution (Nacalai Tesque, Inc.; Code No. 073-26) (Group 4), and a suspension of DRA in olive oil (0.8 mM) (Group 5), each at a dose of 5 mL/kg. Before administration and 0.5, 1, 3, 6, 9 and 24 hours after administration for Groups 1-3, or before administration and 1, 3, 6, 9 and 24 hours after administration for Groups 4-5, a blood sample was collected from the caudal vein in heparinized tube and was centrifuged (at 8,000 rpm for 10 min.) to obtain plasma sample. At a later date, plasma FRAP activity as well as the ORAC activity of the supernatants obtained after deproteinization with acetone were evaluated.

[1] = acteoside versus DRA; cited from earlier work
[2] = oral; cited from earlier work
[3] = Absorption in the body: blood concentrations by LC-MS/MS after oral administration; format: in vivo, rat; settings: rats; for Cmax: male, SD (IGS), rat, 4 µmol/kg, suspension in 0.5% CMC (0.8 mM), 5 mL/kg, pooled plasma, β-glucuronidase/arylsulphatase treated, read-out: maximum blood concentration (Cmax) of the administered compound itself
Description: as §1
Among the plasma samples collected for the determination of blood antioxidative activity in Example 5, some parts of those samples from Group 1 (a 0.5% CMC solution), Group 2 (a suspension of DRA in 0.5% CMC) and Group 3 (a suspension of acteoside in 0.5% CMC) were used to determine the blood concentrations of the respective samples after administration.
After equivalent amounts of the plasma samples from the three rats in each group were mixed and homogenized, 90 μL of a helix pomatia-derived β-glucuronidase/arylsulphatase/acetate buffer (pH 5.0) was added to 90 μL of the plasma mixture and incubation was conducted at 37° C. for one hour. After 900 μL of acetonitrile was added to terminate the reaction, 10 μL of an aqueous solution of 1% ascorbic acid and 10 μL of an internal standard solution were added, and the contents were mixed and centrifuged (at 15,000 rpm for 10 min.) to recover a supernatant. The recovered supernatant was concentrated under reduced pressure, dissolved again in 50% methanol, passed through a filter, and subjected to LC-MS/MS analysis to quantify acteoside, DRA, hydroxytyrosol, and coffeic acid. The amounts of acteoside, DRA, hydroxytyrosol, and coffeic acid were determined by the ratio of each of their peak areas to the peak area of hesperidin (Wako) used as an internal standard. The LC-MS/MS analysis conditions are shown below.

[4] = suspension in 0.5% CMC, DRA versus acteoside

| Structure (SMILES) | blood antioxidative activity after administration (SD (IGS) male rats) | in vitro antioxidative activity, comparison [1] | absorbability when orally ingested [2] | Cmax [3] | time of earlier peak of FRAP activity after administration (SD (IGS) male rats; DRA 0.8 mM, first of bimodal peaks) | time of later peak of FRAP activity after administration (SD (IGS) male rats; DRA 0.8 mM, second of bimodal peaks) | amount absorbed in the body relative to acteoside, by AUCs of coffeic acid [3, 4] | amount absorbed in the body relative to acteoside, by AUCs of hydroxytyrosol [3, 4] |
| --- | --- | --- | --- | --- | --- | --- | --- | --- |
| C[C@@H]1O[C@@H](O[C@@H]2[C@@H](O)[C@H](OCCc3ccc(O)c(O)c3)O[C@H](CO)[C@H]2OC(=O)/C=C/c2ccc(O)c(O)c2)[C@H](O)[C@H](O)[C@H]1O [acteoside] | little increase | more active than DRA | poor absorbability | < 1000 nM |  |  |  |  |
| O=C(C=Cc1ccc(O)c(O)c1)O[C@@H]1C(CO)OC(OCCc2ccc(O)c(O)c2)C(O)C1O (stereo partly shown) [DRA, desrhamnosyl acteoside] | apparent increase |  |  | < 1000 nM | 1 to 3 h | 9 h | about 13 times | about 3 times |
